A short description of this series: Particle size of the levetiracetam used. Type of series: physicochemical. The settings on record: levetiracetam used in the examples. The protocol: In order to avoid possible handling difficulties, the levetiracetam used preferably comprises particles having a particle size distribution such that d(0.1) is Not Less Than (NLT) about 0.6 μm, d(0.5) is from about 10 to about 30 μm, and d(0.9) is Not More Than (NMT) about 65 μm. In addition, the Bulk Density is NLT 0.2 g/cm^3, and the Tapped Density is NLT 0.35 g/cm^3. […] To minimize the impact of particle size on the levetiracetam release rate, a disintegrant was added intra- and extra-granularly. Although the resulting dissolution rate is somewhat slower than that of the commercial product, the product of present invention is found to be bio-equivalent to the marketed product in both fasting and food bio-equivalent studies.

Regarding `CC[C@@H](C(N)=O)N1CCCC1=O` [levetiracetam, (−)-(S)-(alpha)-ethyl-2-oxo-1-pyrrolidine acetamide], the Particle size entry was “about 50 μm”.
